Results published in the NIST ThermoML archive (doi:10.1016/j.fluid.2008.01.004).

Test: mn = molality of the nth substance listed, in mol/kg
Settings: 101 kPa, Liquid; for speed of sound: Sing-around technique in a fixed-path interferometer; for molar conductivity: digital conductivity meter

O=P([O-])([O-])[O-].[Na+].[Na+].[Na+] [trisodium phosphate] + O
Settings | mass density, 283.15 K [kg/m3] | mass density, 288.15 K [kg/m3] | molar conductivity, 283.15 K [S·m2/mol] | molar conductivity, 288.15 K [S·m2/mol] | molar conductivity, 293.15 K [S·m2/mol] | speed of sound, 283.15 K [m/s] | speed of sound, 288.15 K [m/s] | speed of sound, 293.15 K [m/s]
m1 = 0.0026 | – | – | 0.0382 | 0.0395 | 0.0406 | – | – | –
m1 = 0.0039 | – | – | 0.0361 | 0.0369 | 0.0379 | – | – | –
m1 = 0.0053 | – | – | 0.0348 | 0.0363 | 0.038 | – | – | –
m1 = 0.0089 | 1001.51 | 1000.88 | – | – | – | 1450.7 | 1469 | 1485.1
m1 = 0.0105 | 1001.84 | 1001.2 | 0.0306 | 0.0325 | 0.0342 | 1451.2 | 1469.5 | 1485.6
m1 = 0.0116 | 1002.06 | 1001.42 | – | – | – | 1451.5 | 1469.8 | 1486
m1 = 0.0132 | 1002.38 | 1001.74 | 0.0293 | 0.0318 | 0.0333 | 1452 | 1470.2 | 1486.3
m1 = 0.0183 | 1003.44 | 1002.77 | 0.0275 | 0.0292 | 0.0309 | 1453.4 | 1471.6 | 1487.7
m1 = 0.0234 | 1004.45 | 1003.77 | 0.0259 | 0.0281 | 0.0297 | 1455 | 1473.1 | 1489.2
m1 = 0.0342 | 1006.62 | 1005.91 | 0.0234 | 0.0253 | 0.0264 | 1457.8 | 1475.8 | 1491.8
m1 = 0.045 | 1008.77 | 1008.04 | 0.0218 | 0.0236 | 0.0249 | 1460.7 | 1478.6 | 1494.5
m1 = 0.0563 | 1011 | 1010.23 | 0.0211 | 0.0223 | 0.0236 | 1463.6 | 1481.5 | 1497.3
m1 = 0.0662 | 1012.94 | 1012.15 | 0.0197 | 0.0216 | 0.0227 | 1466.1 | 1483.9 | 1499.7
m1 = 0.0767 | – | – | 0.0192 | 0.021 | 0.0218 | – | – | –
m1 = 0.088 | 1017.25 | 1016.4 | 0.0186 | 0.0199 | 0.0209 | 1471.7 | 1489.3 | 1504.9
m1 = 0.0968 | 1018.97 | 1018.1 | 0.0179 | 0.0196 | – | 1473.9 | 1491.5 | 1507
m1 = 0.1086 | 1021.25 | 1020.35 | 0.0178 | 0.0191 | – | 1476.8 | 1494.3 | 1509.7
m1 = 0.1133 | 1022.18 | 1021.28 | 0.0173 | 0.0188 | – | 1477.9 | 1495.4 | 1510.8
m1 = 0.1296 | 1025.36 | 1024.4 | 0.0166 | 0.0181 | – | 1482 | 1499.3 | 1514.6
m1 = 0.141 | 1027.58 | 1026.61 | 0.0161 | 0.0175 | – | 1484.8 | 1502.1 | 1517.3
m1 = 0.1515 | 1029.56 | 1028.56 | 0.0158 | 0.0174 | – | 1487.3 | 1504.5 | 1519.7
m1 = 0.1638 | 1031.95 | 1030.93 | 0.0159 | 0.0174 | – | 1490.3 | 1507.4 | 1522.5
m1 = 0.1755 | 1034.17 | 1033.12 | 0.0155 | 0.0168 | – | 1493.1 | 1510.1 | 1525.2
m1 = 0.1868 | 1036.39 | 1035.32 | 0.0153 | 0.0165 | – | 1496 | 1512.9 | 1527.8
m1 = 0.1954 | 1037.96 | 1036.87 | 0.0154 | 0.0162 | – | 1498 | 1514.8 | 1529.7
m1 = 0.2224 | 1043.23 | 1042.08 | 0.0145 | 0.0153 | – | 1504.6 | 1521.3 | 1536
m1 = 0.2333 | 1045.32 | 1044.14 | 0.0143 | 0.0152 | – | 1507.2 | 1523.9 | 1538.5
m1 = 0.2509 | 1048.59 | 1047.38 | 0.0142 | 0.015 | – | 1511.4 | 1527.9 | 1542.4
